Patent publication US6455075B1, “Method for control of insects on plants and plant tissue” (priority 1996, dated 2002)

Legend:
[1] = test system: Botrytis cinerea; details: 0.05% Hydrogen Peroxide mist during entire propagation; one mature leaf from each of 10 cuttings, averaged
Procedure: In this study 500 zonal geranium cuttings were treated with a mist during the entire course of their propagation. One mature leaf from each of 10 terminal stem cuttings following treatment were sampled and the data was averaged.

[2] = test system: Roses; details: after six weeks of observation
Procedure: (§1) To insure objectivity, the greenhouses selected were not all commonly owned and many varieties of roses were included in the testing. […] The effectiveness of the spray was measured by microbial culture of the surfaces of the greenhouse and the leaf surfaces of the treated and untreated plants. […] It is well known that these fungi are airborne.

[3] = test system: fungus gnats; details: greenhouse treatment; probably due to removal of food source
Procedure: as §1

[4] = test system: mealy bug, white fly, aphids, spider mites, and thrip
Procedure: as §1

[5] = test system: total mold count, including Botrytis and those molds causing Powdery Mildew
Procedure: as §1

[6] = test system: Botrytis and Black Spot Mold; details: flowers wetted with dilute solution before wrapping
Procedure: In the cut flower industry, the moist flowers are wrapped in plastic prior to placement in the shipping boxes for transit. Ice is added to the boxes in many cases to help keep the flowers fresh during transit. This closed, moist environment is very conducive to Botrytis and Black Spot Mold.

[7] = test system: THRIPS
Procedure: (§2) Long and 25 ft. Wide, was filled with various species of household plants, of which most had infestations of some type of insect pest. (Table 2) All other treatments were stopped two weeks prior to treatment with the solution of the present invention. Yellow sticky cards were placed throughout the greenhouse for three days prior to treatment and then were counted for the various species of insects present. The greenhouse was then treated with 12 gallons of a 1:50 dilution of the solution of the present invention using a Dram™ hydraulic sprayer. The house was sprayed on three day intervals for a period of three weeks. Sticky cards were placed in selected areas through out the greenhouse during the three week period.

[8] = test system: insect populations
Procedure: as §2

[9] = test system: various species of household plants; details: throughout the three week treatment period, most plants in bloom
Procedure: as §2

[10] = test system: root rot and other infectious pathogens; details: cuttings dipped in 0.5% hydrogen peroxide, dilute solution in misting system
[11] = test system: black mold growing on the excrement of the aphids; details: leaves of New Guinea Impatiens
[12] = test system: plant pathogens; details: dilute solution
[13] = test system: living plants; details: dilute solution

OO [hydrogen peroxide]
MICRO-ORGANISMS/LEAF [1]: 38 | adverse effects upon the plants [2]: No adverse effects | effect on fungus gnats [3]: eliminated | effect upon insect pests present in the greenhouse ([4]; field trials): lethal effect | effect on larval stages of insect pests ([4]; greenhouse treatment of the preceding example): destruction of the larval stages | total mold count ([5]; 1 % solution sprayed at least four times): killed or seriously reduced the total mold count | treated plants and surfaces free of total fungi (microbial culture) ([5]; after the first application of 1 % hydrogen peroxide): ~100% | recontamination by fungi (microbial culture) ([5]; daily applications of 500 PPM over several weeks): no recontamination by fungi occurred | appearance of detrimental fungi [6]: prevented and or delayed the appearance of the detrimental fungi | reduction of Thrips ([7]; 10 days and post 5 treatments, seven day card exposure): greatly reduced | average Thrips present per card ([7]; after subsequent treatments, 72 hour exposure time): 7-10 | reduction of insect populations ([8]; 10 days and post 5 treatments): marked reduction of insect populations | reduction in insect populations ([8]; after one treatment, 72 hr card exposure): did not indicate any significant reduction | phytotoxicity or other detrimental effect to the plants [9]: no evidence of phytotoxicity | cutting loss [10]: virtually eliminated cutting loss | effect on black mold [11]: quickly neutralized the mold | plant pathogens present on the surfaces [12]: either totally eradicated or substantially reduced | adverse effects on the plants [13]: no adverse affects
